# Source: patent US9809574B2, “Isoindoline or isoquinoline compounds, a process for their preparation and pharmaceutical compositions containing them” (LES LABORATOIRES SERVIER, priority 2013, dated 2017)
# Structures can show the parent of a compound that is named as a salt.
# Key:
# Bcl-2 protein = Bcl-2 protein (histag-Bcl-2, UniProtKB P10415) (Homo sapiens (Human), UniProt P10415); experiment: Inhibition of Bcl-2 by the fluorescence polarisation technique; assay type: binding; conditions: fluorescence polarisation test; incubation for 2 hours; read-out: IC50 (nM) Bcl-2 FP
# Text: For partial inhibitors, the percentage fluorescence polarisation inhibition for a given concentration of the test compound is indicated.
# [1] = system: RS4; 11 leukaemia cell line; experiment: In vitro cytotoxicity, Microculture Tetrazolium Assay (MTT); assay type: cell-based; conditions: Homo sapiens, 11 cells exposed for 48 hours
# Experimental: The cytotoxicity studies were carried out on the RS4; 11 leukaemia cell line and on H146 small Cell Lung Carcinoma cell line. The cells are distributed onto microplates and exposed to the test compounds for 48 hours. The cell viability is then quantified by a colorimetric assay, the Microculture Tetrazolium Assay (Cancer Res., 1987, 47, 939-942).
# Chain of Bcl-2 protein (P10415 whole entry): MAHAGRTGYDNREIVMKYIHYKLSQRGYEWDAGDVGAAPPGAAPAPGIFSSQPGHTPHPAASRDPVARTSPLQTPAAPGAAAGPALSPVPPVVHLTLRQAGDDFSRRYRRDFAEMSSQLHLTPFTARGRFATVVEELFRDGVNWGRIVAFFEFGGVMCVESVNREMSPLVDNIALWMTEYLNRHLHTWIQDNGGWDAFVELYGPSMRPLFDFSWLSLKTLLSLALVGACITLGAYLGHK
SMILES,IC50 (Bcl-2 protein) [nM],IC50 [1] [nM]
"CN(C(=O)c1cc(-c2cc3c(cc2C(=O)N2Cc4ccccc4C[C@H]2CN2CCOCC2)CN(S(=O)(=O)c2ccccc2)C3)n2c1CCCC2)c1ccc(O)cc1 [Example 19, 3-[2-(Benzenesulfonyl)-6-[(3S)-3-(morpholin-4-ylmethyl)-1,2,3,4-tetrahydroisoquinoline-2-carbonyl]-2,3-dihydro-1H-isoindol-5-yl]-N-(4-hydroxyphenyl)-N-methyl-5,6,7,8-tetrahydroindolizine-1-carboxamide hydrochloride]",47,774
"C[C@@H]1Cc2ccccc2CN1C(=O)c1cc2c(cc1-c1cc(C(=O)N(C)c3ccc(O)cc3)c3n1CCCC3)CN(C(=O)CCC1CCCCC1)C2 [Example 32, 3-[2-(3-Cyclohexylpropanoyl)-6-[(3R)-3-methyl-1,2,3,4-tetrahydroisoquinoline-2-carbonyl]-2,3-dihydro-1H-isoindol-5-yl]-N-(4-hydroxyphenyl)-N-methyl-5,6,7,8-tetrahydroindolizine-1-carboxamide]",47,141
"Cc1c(C(=O)N(C)c2ccc(O)cc2)cc(-c2cc3c(cc2C(=O)N2Cc4ccccc4C[C@H]2C)CN(C(=O)COc2ccccc2)C3)n1C [Example 103, N-(4-Hydroxyphenyl)-N,1,2-trimethyl-5-{6-[(3R)-3-methyl-1,2,3,4-tetrahydroisoquinoline-2-carbonyl]-2-(2-phenoxyacetyl)-2,3-dihydro-1H-isoindol-5-yl}-1H-pyrrole-3-carboxamide]",3.6,46
"Cc1c(C(=O)N(C)c2ccccc2)cc(-c2cc3c(cc2C(=O)N2Cc4ccccc4C[C@H]2CN2CCOCC2)CN(C(=O)Oc2ccc4[nH]ccc4c2)CC3)n1C [Example 631, 1H-Indol-5-yl 6-{1,5-dimethyl-4-[methyl(phenyl)carbamoyl]-1H-pyrrol-2-yl}-7-[(3S)-3-(morpholin-4-ylmethyl)-1,2,3,4-tetrahydroisoquinoline-2-carbonyl]-1,2,3,4-tetrahydroisoquinoline-2-carboxylate]",5.2,8.2
"CN(C(=O)c1cc(-c2cc3c(cc2C(=O)N2Cc4ccccc4C[C@H]2CN2CCOCC2)CN(C(=O)NCc2ccccc2)CC3)n2c1CCCC2)c1ccc(O)cc1 [Example 78, N-Benzyl-6-{1-[(4-hydroxyphenyl)(methyl)carbamoyl]-5,6,7,8-tetrahydroindolizin-3-yl}-7-[(3S)-3-(morpholin-4-ylmethyl)-1,2,3,4-tetrahydroisoquinoline-2-carbonyl]-1,2,3,4-tetrahydroisoquinoline-2-carboxamide]",4.4,142
"Cc1c(C(=O)N(C)c2ccc(O)cc2)cc(-c2cc3c(cc2C(=O)N2Cc4ccccc4C[C@H]2CCN2CCOCC2)CN(C(=O)Oc2ccccc2)CC3)n1C [Example 216, Phenyl 6-{4-[(4-hydroxyphenyl)(methyl)carbamoyl]-1,5-dimethyl-1H-pyrrol-2-yl}-7-[(3S)-3-[2-(morpholin-4-yl)ethyl]-1,2,3,4-tetrahydroisoquinoline-2-carbonyl]-1,2,3,4-tetrahydroisoquinoline-2-carboxylate]",2.4,2.9
"C[C@@H]1Cc2ccccc2CN1C(=O)c1cc2c(cc1-c1cc(C(=O)N(C)c3ccc(O)cc3)c3n1CCCC3)CCN(C(=O)Cc1cccc(N3CCN(C)CC3)c1)C2 [Example 169, N-(4-Hydroxyphenyl)-N-methyl-3-{7-[(3R)-3-methyl-1,2,3,4-tetrahydroisoquinoline-2-carbonyl]-2-{2-[3-(4-methylpiperazin-1-yl)phenyl]acetyl}-1,2,3,4-tetrahydroisoquinolin-6-yl}-5,6,7,8-tetrahydroindolizine-1-carboxamide]",3.3,3
"C#Cc1ccc(OC(=O)N2CCc3cc(-c4cc(C(=O)N(C)c5ccc(O)cc5)c(C)n4C)c(C(=O)N4Cc5ccccc5C[C@H]4CN4CCOCC4)cc3C2)cc1 [Example 564, 4-Ethynylphenyl 6-{4-[(4-hydroxyphenyl)(methyl)carbamoyl]-1,5-dimethyl-1H-pyrrol-2-yl}-7-[(3S)-3-(morpholin-4-ylmethyl)-1,2,3,4-tetrahydroisoquinoline-2-carbonyl]-1,2,3,4-tetrahydroisoquinoline-2-carboxylate]",4.5,3.3
"C[C@@H]1Cc2ccccc2CN1C(=O)c1cc2c(cc1-c1cc(C(=O)N(C)c3ccc(O)cc3)c3n1CCCC3)CN(C(=O)Cc1ccccc1)C2 [Example 14, N-(4-Hydroxyphenyl)-N-methyl-3-{6-[(3R)-3-methyl-1,2,3,4-tetrahydroisoquinoline-2-carbonyl]-2-(2-phenylacetyl)-2,3-dihydro-1H-isoindol-5-yl}-5,6,7,8-tetrahydroindolizine-1-carboxamide]",7.9,27
"C[C@H](C(=O)N1CCc2cc(-c3cc(C(=O)N(C)c4ccc(O)cc4)c4n3CCCC4)c(C(=O)N3Cc4ccccc4C[C@H]3C)cc2C1)c1ccccc1 [Example 90, N-(4-Hydroxyphenyl)-N-methyl-3-{7-[(3R)-3-methyl-1,2,3,4-tetrahydroisoquinoline-2-carbonyl]-2-[(2S)-2-phenylpropanoyl]-1,2,3,4-tetrahydroisoquinolin-6-yl}-5,6,7,8-tetrahydroindolizine-1-carboxamide]",6.2,39
"C[C@@H]1Cc2ccccc2CN1C(=O)c1cc2c(cc1-c1cc(C(=O)N(C)c3ccc(O)cc3)c3n1CCCC3)CCN(C(=O)Oc1ccccc1)C2 [Example 46, Phenyl 6-{1-[(4-hydroxyphenyl)(methyl)carbamoyl]-5,6,7,8-tetrahydroindolizin-3-yl}-7-[(3R)-3-methyl-1,2,3,4-tetrahydroisoquinoline-2-carbonyl]-1,2,3,4-tetrahydroisoquinoline-2-carboxylate]",3.7,2.8
"Cc1c(C(=O)N(C)c2ccc(O)cc2)cc(-c2cc3c(cc2C(=O)N2Cc4ccccc4C[C@H]2CN2CCOCC2)CN(C(=O)Oc2ccc(C(=O)O)cc2)CC3)n1C [Example 721, 4-(6-{4-[(4-Hydroxyphenyl)(methyl)carbamoyl]-1,5-dimethyl-1H-pyrrol-2-yl}-7-[(3S)-3-(morpholin-4-ylmethyl)-1,2,3,4-tetrahydroisoquinoline-2-carbonyl]-1,2,3,4-tetrahydroisoquinoline-2-carbonyloxy)benzoic acid]",4.9,> 150
"Cc1c(C(=O)N(C)c2ccc(O)cc2)cc(-c2cc3c(cc2C(=O)N2Cc4ccccc4C[C@H]2CN2CCOCC2)CN(C(=O)Oc2ccc(Cl)c(Cl)c2)CC3)n1C [Example 573, 3,4-Dichlorophenyl 6-{4-[(4-hydroxyphenyl)(methyl)carbamoyl]-1,5-dimethyl-1H-pyrrol-2-yl}-7-[(3S)-3-(morpholin-4-ylmethyl)-1,2,3,4-tetrahydroisoquinoline-2-carbonyl]-1,2,3,4-tetrahydroisoquinoline-2-carboxylate]",18,43
"C[C@@H]1Cc2ccccc2CN1C(=O)c1cc2c(cc1-c1cc(C(=O)N(C)c3ccc(O)cc3)c3n1CCCC3)CCN(C(=O)Cc1ccc(CN3CCOCC3)cc1)C2 [Example 129, N-(4-Hydroxyphenyl)-N-methyl-3-{7-[(3R)-3-methyl-1,2,3,4-tetrahydroisoquinoline-2-carbonyl]-2-{2-[4-(morpholin-4-ylmethyl)phenyl]acetyl}-1,2,3,4-tetrahydroisoquinolin-6-yl}-5,6,7,8-tetrahydroindolizine-1-carboxamide]",3.3,39
"Cc1c(C(=O)N(C)c2ccc(O)cc2)cc(-c2cc3c(cc2C(=O)N2Cc4ccccc4C[C@H]2CN2CCN(C)CC2)CN(C(=O)Oc2cccc(C(=O)O)c2)CC3)n1C [Example 733, 3-(6-{4-[(4-Hydroxyphenyl)(methyl)carbamoyl]-1,5-dimethyl-1H-pyrrol-2-yl}-7-[(3S)-3-[(4-methylpiperazin-1-yl)methyl]-1,2,3,4-tetrahydroisoquinoline-2-carbonyl]-1,2,3,4-tetrahydroisoquinoline-2-carbonyloxy)benzoic acid]",1.5,> 150
"CC(=O)N(C)c1ccc(OC(=O)N2CCc3cc(-c4cc(C(=O)N(C)c5ccc(O)cc5)c(C)n4C)c(C(=O)N4Cc5ccccc5C[C@H]4CN4CCOCC4)cc3C2)cc1 [Example 803, 4-(N-Methylacetamido)phenyl 6-{4-[(4-hydroxyphenyl)(methyl)carbamoyl]-1,5-dimethyl-1H-pyrrol-2-yl}-7-[(3S)-3-(morpholin-4-ylmethyl)-1,2,3,4-tetrahydroisoquinoline-2-carbonyl]-1,2,3,4-tetrahydroisoquinoline-2-carboxylate]",4.6,37
"CCC(C(=O)N1CCc2cc(-c3cc(C(=O)N(C)c4ccc(O)cc4)c4n3CCCC4)c(C(=O)N3Cc4ccccc4C[C@H]3C)cc2C1)c1ccccc1 (stereo partly drawn) [Example 95, N-(4-Hydroxyphenyl)-N-methyl-3-{7-[(3R)-3-methyl-1,2,3,4-tetrahydroisoquinoline-2-carbonyl]-2-(2-phenylbutanoyl)-1,2,3,4-tetrahydroisoquinolin-6-yl}-5,6,7,8-tetrahydroindolizine-1-carboxamide]",14,115
"COc1ccccc1OC(=O)N1CCc2cc(-c3cc(C(=O)N(C)c4ccc(O)cc4)c4n3CCCC4)c(C(=O)N3Cc4ccccc4C[C@H]3CN3CCOCC3)cc2C1 [Example 128, 2-Methoxyphenyl 6-{1-[(4-hydroxyphenyl)(methyl)carbamoyl]-5,6,7,8-tetrahydroindolizin-3-yl}-7-[(3S)-3-(morpholin-4-ylmethyl)-1,2,3,4-tetrahydroisoquinoline-2-carbonyl]-1,2,3,4-tetrahydroisoquinoline-2-carboxylate]",3.5,8.2
